Measured values: ChEMBL document CHEMBL3507680, “University of Dundee, Gates Library screen for HepG2 cell viability”

Assay: Human HepG2 cell viability assay in 384 well format
Type: toxicity, cell-based
Parameters: dose 125 nL, time 70.5 hour; cytotoxicity at 70.5 h: concentration not given beside the values
Details: HepG2 cells, read-out: Inhibition

Compound | cytotoxicity at 70.5 h
C=C(C)CSc1nnc(CCNC(=O)OC(C)(C)C)o1 | -12.3%
O=C(Cc1ccccc1)N1CC(=O)N(Cc2ccco2)CC(O)C1 (stereo unspecified) | 0.111%
Cc1ccc(C(=O)N2CC(=O)N(Cc3ccco3)CC(O)C2)cc1 (stereo unspecified) | -2.64%
CC(C)CN1CC(O)CN(S(=O)(=O)c2ccc(F)cc2)CC1=O (stereo unspecified) | -9.29%
CC(C)(C)C(=O)N1CC(=O)N(Cc2ccco2)CC(O)C1 (stereo unspecified) | -4.89%
CC(C)CC(=O)N1CC(=O)N(Cc2ccco2)CC(O)C1 (stereo unspecified) | 8.54%
CCCC1CN(CCOC)C(=O)c2cccnc2O1 (stereo unspecified) | -8.12%
CCOC(=O)N1[C@@H](c2ccco2)[C@@H](C(=O)NC)C[C@]12CCCCNC2=O | 15.2%
CC(C)(C)CC(=O)N1[C@@H](c2ccco2)[C@@H](CO)C[C@]12CCCCNC2=O | -5.67%
CCOC(=O)CN1C(=O)CN(S(C)(=O)=O)CCC(OC)c2ccccc21 (stereo unspecified) | -8.31%
CNC(=O)CN1C(=O)CN(C(=O)COC)CCC(OC)c2ccccc21 (stereo unspecified) | 15.1%
OCC1N(Cc2ccc(F)cc2)[C@H]2CC[C@]1(O)CC2 (stereo partly specified) | -7.04%
O=C(c1ccco1)N1C(CO)[C@]2(O)CC[C@H]1CC2 (stereo partly specified) | -3.21%
O=C(Nc1ccccc1)N1C(CO)[C@]2(O)CC[C@H]1CC2 (stereo partly specified) | 15%
COCC1N(C(=O)c2ccco2)[C@H]2CC[C@]1(O)CC2 (stereo partly specified) | -2.24%
COCC1N(C(=O)Nc2ccccc2)[C@H]2CC[C@]1(O)CC2 (stereo partly specified) | -7.67%
COCC1N(S(=O)(=O)c2cn(C)cn2)[C@H]2CC[C@]1(O)CC2 (stereo partly specified) | -7.28%
CCOC(=O)C1CC2(CCCCC2)N2CCC(=O)N12 (stereo unspecified) | -4.11%
O[C@]12CC[C@H](CC1)N(Cc1ccc(F)cc1)C2CN1CCOCC1 (stereo partly specified) | -7.54%
O=S(=O)(c1ccccc1)N1C(CN2CCOCC2)[C@]2(O)CC[C@H]1CC2 (stereo partly specified) | 16.5%
O=C1CCNc2ncc(-c3ccc(Cl)cc3)cc2CN1C1CC1 | -8.11%
CCOC(=O)[C@@H]1[C@@H](c2ccccc2)CN2CCN(C(C)=O)C[C@H]12 | -4.08%
CCOC(=O)[C@@H]1[C@@H](c2ccccc2)CN2CCN(C(=O)C3CC3)C[C@H]12 | 16.5%
CO[C@@H]1CN(C)S(=O)(=O)[C@@]12CCN(Cc1ccccc1)C2 | -7.27%
CO[C@@H]1CN(c2ccccc2)S(=O)(=O)[C@@]12CCN(C)C2 | -7.99%
COC(=O)N1CC[C@@]2(C1)[C@H](OC)CN(c1ccccc1)S2(=O)=O | -11.4%

Compound | cytotoxicity at 70.5 h
CO[C@@H]1CN(c2ccccc2)S(=O)(=O)[C@@]12CCN(S(C)(=O)=O)C2 | 15.4%
COCC(O)CN1CCC(=O)N(Cc2ccccc2)Cc2ccccc21 (stereo unspecified) | -5.42%
COCC(O)CN1CCC(=O)N(CC(=O)C(C)(C)C)Cc2ccccc21 (stereo unspecified) | -4.8%
COCCN1CC(O)CN(C(=O)c2cccc(C(F)(F)F)c2)CC1=O (stereo unspecified) | -0.767%
COc1ccc(CN2CC(O)CN(C(=O)c3ccccc3)CC2=O)cc1 (stereo unspecified) | 7.16%
COc1ccc(CN2CC(O)CN(C(=O)C3CCC3)CC2=O)cc1 (stereo unspecified) | -0.603%
Cc1ccc(C(=O)N2CC(=O)N(Cc3cccs3)CC(O)C2)cc1 (stereo unspecified) | -0.413%
CSc1ccc(C(=O)N2CC(=O)N(Cc3ccccc3)CC(O)C2)cc1 (stereo unspecified) | 0.216%
COc1ccc(C(=O)N2CC(=O)N(C3CCC3)CC(O)C2)c(OC)c1 (stereo unspecified) | -1.09%
O=C(c1cccc(C(F)(F)F)c1)N1CC(=O)N(C2CCC2)CC(O)C1 (stereo unspecified) | -7.16%
COc1ccc(C(=O)N2CC(=O)N(CC3CC3)CC(O)C2)cc1 (stereo unspecified) | -4%
COc1ccccc1C(=O)N1CC(=O)N(CC2CC2)CC(O)C1 (stereo unspecified) | -0.352%
CCOC(=O)N1CCC(OC)c2ccccc2N(CC(=O)NC)C(=O)C1 (stereo unspecified) | -3.27%
COCCOC(=O)N1CCN2C[C@@H](CO)[C@H](c3ccccc3)[C@H]2C1 | 0.912%
COC(=O)N1CCN2C[C@H](CO)[C@@H](c3ccccc3)[C@H]2C1 | -4.89%
COc1ccc2c3c1CN(C(C)=O)CC3=CC(C)(C)CO2 | 0.846%
CCNC(=O)N1CC2=CC(C)(C)COc3ccc(OC)c(c32)C1 | -6.22%
CC(C)CC(=O)N1CC(=O)N(CCc2ccccc2)CC(O)C1 (stereo unspecified) | 24%
CCS(=O)(=O)N1CC(=O)N(Cc2ccccc2OC)CC(O)C1 (stereo unspecified) | 17.6%
CCCS(=O)(=O)N1CC(=O)N(Cc2cccc(OC)c2OC)CC(O)C1 (stereo unspecified) | 9.04%
COc1cccc(CN2CC(O)CN(S(C)(=O)=O)CC2=O)c1OC (stereo unspecified) | 4.13%
CCOC(=O)N1CC(=O)N(Cc2cccc(OC)c2OC)CC(O)C1 (stereo unspecified) | -5.06%
COC1CN(C(=O)OCC(C)C)CCC(=O)N(C)c2ccccc21 (stereo unspecified) | -4.55%
COC1CN(C(=O)Nc2ccccc2)CCC(=O)N(C)c2ccccc21 (stereo unspecified) | -0.759%
COC1CN(C(=O)Cc2cccs2)CCC(=O)N(C)c2ccccc21 (stereo unspecified) | 2.17%
CC(=O)N1CCC(=O)N(C2CCCC2)Cc2ccccc21 | 7.97%

Compound | cytotoxicity at 70.5 h
COCC(=O)N1CCC(=O)N(C2CCCC2)Cc2ccccc21 | 6.82%
Cc1nc2ccn(C(C)C)c(=O)c2cc1C(=O)O | -24.7%
CC(C)Cc1cc(C(=O)O)nc2[nH]c(=O)[nH]c(=O)c12 | -14.3%
O=C(O)CCn1ccc(=O)c2ccccc21 | -3.76%
O=C(O)CCC(=O)N1CCC(c2noc3cc(F)ccc23)CC1 | -10.8%
O=C(O)Cn1ccc(=O)c2cc(F)ccc21 | -10.1%
Cc1nc(Oc2ccccc2F)sc1C(=O)O | -11.4%
Cc1cccc(S(=O)(=O)N2C[C@H]3C[C@H](C(=O)NC4CCC4)[C@@H](C2)O3)c1 | -10.5%
CC(C)NC(=O)C1CCC2(CCN(c3ncccn3)CC2)CO1 (stereo unspecified) | -9.99%
CCC(C)N1CCc2c(C(=O)N(C)Cc3ccccn3)nn(C)c2C1 (stereo unspecified) | -7.34%
Cc1cccc(S(=O)(=O)N2C[C@H]3C[C@H](C(=O)NCC4CC4)[C@@H](C2)O3)c1 | -0.444%
Cc1cccc(S(=O)(=O)N2C[C@H]3C[C@H](C(=O)N(C)C)[C@@H](C2)O3)c1 | 1.15%
CC(=O)NCc1noc2c1CN(Cc1cnn(C)c1)CC2 | 2.69%
COCC(=O)N1CCC2(CC1)CC(OC)CO2 (stereo unspecified) | -7.5%
CC(C)NC(=O)[C@@H]1CC[C@@H]2[C@@H](CCN2Cc2ccc3ccccc3n2)O1 | -8.11%
CCC(C)N1Cc2c(C(=O)N3CCCC3)nn(C)c2C1 (stereo unspecified) | -2.34%
Cc1ccc(NC2COC3(CCN(CC(C)C)CC3)C2)nn1 (stereo unspecified) | 27.8%
CN1CCc2ncc(CNc3cc(N(C)C)ncn3)n2CC1 | -11.9%
CCS(=O)(=O)N1CCC2(CCC(N3CCCC3)c3ccccc32)CC1 (stereo unspecified) | -10.6%
CC(=O)NCc1noc2c1CN(CCN1CCCC1)CC2 | -8.27%
Cc1cncc(C(=O)N2CC[C@@H]3[C@H]2CCC(=O)N3CCN(C)C)c1 | 2.21%
CN(C)CCN1CCO[C@H]2CCN(C(=O)c3cccs3)CC[C@@H]21 | 32.1%
CN(Cc1ccccn1)C(=O)c1nn(C)c2c1CCN(CC1CC1)C2 | -1.96%
CN1CCN(C2COC3(CCN(CC4CC4)CC3)C2)CC1 (stereo unspecified) | 0.151%
